pIC50: −log10 of the molar value.
How the values were obtained:
PI3Kα (p110α/p85α) = molecular target: T1, PI3Kα (p110α/p85α) (Homo sapiens, UniProt P42336); test: PI3Kα ADP-Glo assay; type: biochemical; settings: 20 μM PIP2, 10 μM ATP, 30 minutes
T1 construct: GST (N); made in house; host or cells: Baculovirus-infected Sf9 cells
Method: (A) an In Vitro Assay which Determines the Ability of a Test Compound to Inhibit PI3Kα.
Activity of PI3Kα was measured using ADP-Glo assay from Promega. PI3Kα, a complex of N-terminal GST-tagged recombinant full-length human p110α (GenBank, Accession No. U79143) and N-terminal His tagged recombinant full length human p85a (GenBank Accession No. XM—043865) were co-expressed in a Baculovirus infected Sf9 cell expression system. The ADP-Glo assay was performed to measure the amount of ADP generated from ATP hydrolysis coupled with PIP2 phosphorylation by the purified recombinant PI3Kα (p110α/p85α). PI3Kα was incubated with 20 μM PIP2 substrate in the reaction buffer (50 mM HEPES, pH 7.4, 150 mM NaCl, 5 mM MgCl2, 1 mM DTT, 3 uM Naorthovanadate, 10 μM ATP and 0.5% DMSO) for 30 minutes at room temperature. The ADP generated was then detected by ADP-Glo assay from Promega, a luminescent ADP detection assay. The ADP-Glo assay is performed in two steps; first, after the kinase reaction, ADP-Glo Reagent is added to terminate the kinase reaction and deplete the remaining ATP. Second, the Kinase Detection Reagent is added to simultaneously convert ADP to ATP and allow the newly synthesized ATP to be measured using a luciferase/luciferin reaction.

[1] = tested on: HDACs (HeLa cell nuclear extracts); test: HDAC enzymatic activity, Biomol Color de Lys system; type: biochemical; settings: 1 hour, 25° C.
Method: (E) an In Vitro Assay which Determines the Ability of a Test Compound to Inhibit HDAC Enzymatic Activity.
HDAC inhibitory activity was assessed using the Biomol Color de Lys system (AK-500, Biomol, Plymouth Meeting, Pa.). Briefly, HeLa cell nuclear extracts were used as a source of HDACs. Different concentrations of test compounds were serially diluted in dimethylsulphoxide (DMSO) and added to HeLa cell nuclear extracts in the presence of a colorimetric artificial substrate. Final assay condition contained 50 mM Tris/Cl, pH 8.0, 137 mM NaCl, 2.7 mM KCl and 1 mM MgCl2. Reactions were carried in room temperature (25° C.) for 1 hour before addition of developer for termination. Relative enzyme activity was measured in the WALLAC Victor II 1420 microplate reader as fluorescence intensity (excitation: 350-380 nm; emission: 440-460 nm). Data were analyzed using GraphPad Prism (v4.0a) with a sigmoidal dose response curve fitting for IC50 calculation.

T1 sequence (P42336 whole entry): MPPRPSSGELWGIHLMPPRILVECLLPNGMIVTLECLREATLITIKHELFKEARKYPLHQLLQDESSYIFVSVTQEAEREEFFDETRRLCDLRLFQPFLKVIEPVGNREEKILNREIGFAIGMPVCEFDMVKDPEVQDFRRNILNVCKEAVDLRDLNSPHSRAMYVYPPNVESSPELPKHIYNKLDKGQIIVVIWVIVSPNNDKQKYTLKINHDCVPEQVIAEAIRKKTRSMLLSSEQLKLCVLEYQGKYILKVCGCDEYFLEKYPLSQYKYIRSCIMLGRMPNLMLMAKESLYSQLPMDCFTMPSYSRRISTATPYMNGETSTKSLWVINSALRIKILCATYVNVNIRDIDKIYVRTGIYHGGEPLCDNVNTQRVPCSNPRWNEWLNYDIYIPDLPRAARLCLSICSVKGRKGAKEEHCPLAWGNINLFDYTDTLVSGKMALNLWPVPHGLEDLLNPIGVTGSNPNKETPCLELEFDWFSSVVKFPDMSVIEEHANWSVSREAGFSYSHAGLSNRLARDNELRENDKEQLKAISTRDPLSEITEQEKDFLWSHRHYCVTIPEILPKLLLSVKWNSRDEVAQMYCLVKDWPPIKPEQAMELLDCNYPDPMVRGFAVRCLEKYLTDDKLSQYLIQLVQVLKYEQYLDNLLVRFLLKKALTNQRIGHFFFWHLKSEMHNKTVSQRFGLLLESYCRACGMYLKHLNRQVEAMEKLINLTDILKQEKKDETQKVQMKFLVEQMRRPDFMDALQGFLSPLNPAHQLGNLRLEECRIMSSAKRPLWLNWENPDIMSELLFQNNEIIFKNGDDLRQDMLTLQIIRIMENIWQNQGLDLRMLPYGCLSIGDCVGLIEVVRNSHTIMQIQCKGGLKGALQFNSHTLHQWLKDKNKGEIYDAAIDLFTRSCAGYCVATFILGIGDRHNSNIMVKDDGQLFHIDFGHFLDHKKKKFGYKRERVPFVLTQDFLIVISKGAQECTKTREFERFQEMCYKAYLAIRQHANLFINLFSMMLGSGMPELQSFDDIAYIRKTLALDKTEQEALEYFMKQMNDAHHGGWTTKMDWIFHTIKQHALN
T1 sequence (P27986 whole entry partner): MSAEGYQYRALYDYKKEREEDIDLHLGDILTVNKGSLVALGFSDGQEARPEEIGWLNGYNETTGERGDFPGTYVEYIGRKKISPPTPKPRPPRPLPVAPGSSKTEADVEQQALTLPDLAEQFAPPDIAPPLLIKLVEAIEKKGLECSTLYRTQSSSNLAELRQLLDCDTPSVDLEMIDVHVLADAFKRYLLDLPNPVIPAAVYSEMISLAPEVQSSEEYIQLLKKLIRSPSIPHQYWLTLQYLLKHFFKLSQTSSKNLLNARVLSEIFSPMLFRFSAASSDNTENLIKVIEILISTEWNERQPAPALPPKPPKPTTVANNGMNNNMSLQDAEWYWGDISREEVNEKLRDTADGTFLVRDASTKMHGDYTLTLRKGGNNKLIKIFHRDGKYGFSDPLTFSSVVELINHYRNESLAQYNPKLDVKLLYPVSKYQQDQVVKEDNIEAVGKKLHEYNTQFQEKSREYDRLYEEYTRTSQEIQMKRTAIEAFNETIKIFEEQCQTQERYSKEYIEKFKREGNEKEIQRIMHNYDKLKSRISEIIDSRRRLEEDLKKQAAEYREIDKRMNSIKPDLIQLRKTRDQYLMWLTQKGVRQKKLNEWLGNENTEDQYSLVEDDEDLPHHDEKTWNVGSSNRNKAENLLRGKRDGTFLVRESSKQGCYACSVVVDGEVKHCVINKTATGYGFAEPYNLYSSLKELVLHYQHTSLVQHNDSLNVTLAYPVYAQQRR

| Compound | pIC50 (PI3Kα (p110α/p85α)) | pIC50 [1] |
| --- | --- | --- |
| CC(C)C(=O)Nc1ccc(-c2nc(N3CCOCC3)c3sc(CN(C)c4ncc(C(=O)NO)cn4)cc3n2)cc1 [Compound 286] | 6.00 to 7.00 | > 7.00 |
| CN(C)CCN(Cc1cc2nc(-c3cccc4[nH]ncc34)nc(N3CCOCC3)c2s1)c1ncc(C(=O)NO)cn1 [Compound 95] | > 7.00 | 6.00 to 7.00 |
| CN(Cc1cc2nc(-c3cccc(S(=O)(=O)CCO)c3)nc(N3CCOCC3)c2s1)c1ncc(C(=O)NO)cn1 [Compound 291] | < 5.00 | > 7.00 |
| COc1cccc(Nc2nc(-c3cccc4[nH]ncc34)nc3cc(CN(C)c4ncc(C(=O)NO)cn4)sc23)c1 [Compound 166] | < 5.00 | > 7.00 |
| C/C(=N/O)c1cccc(-c2nc(N3CCOCC3)c3sc(CN(C)c4ncc(C(=O)NO)cn4)cc3n2)c1 [Compound 299] | 6.00 to 7.00 | > 7.00 |
| CN1CCN(c2nc(-c3cccc4[nH]ncc34)nc3cc(CN(C)c4ncc(C(=O)NO)cn4)sc23)CC1 [Compound 61] | < 5.00 | > 7.00 |
| CN(Cc1cc2nc(-c3cccc(C(=O)O)c3)nc(N3CCOCC3)c2s1)c1ncc(C(=O)NO)cn1 [Compound 303] | 6.00 to 7.00 | > 7.00 |
| Cn1cc(CNc2cc3nc(-c4cccc5[nH]ncc45)nc(N4CCOCC4)c3s2)c2cc(C(=O)NO)ccc21 [Compound 106] | > 7.00 | 5.00 to 6.00 |
| CN(Cc1cc2nc(-c3ccc(N)cc3)nc(N3CCOCC3)c2s1)c1ccc(C(=O)NO)cc1 [Compound 206] | 6.00 to 7.00 | > 7.00 |
| CN(Cc1cc2nc(-c3ccc4c(c3)CCN4)nc(N3CCOCC3)c2s1)c1ncc(C(=O)NO)cn1 [Compound 193] | < 5.00 | > 7.00 |
| CN(Cc1cc2nc(-c3ccc(O)nc3)nc(N3CCOCC3)c2s1)c1ncc(C(=O)NO)cn1 [Compound 254] | 6.00 to 7.00 | > 7.00 |
| CN(Cc1cc2nc(-c3cccc4[nH]ncc34)nc(N3CCOCC3)c2s1)c1ncc(/C=C/C(=O)NO)cn1 [Compound 75] | > 7.00 | 6.00 to 7.00 |
| Cn1c(CNCc2cc3nc(-c4ccc(N)cc4)nc(N4CCOCC4)c3s2)nc2cc(/C=C/C(=O)NO)ccc21 [Compound 326] | 6.00 to 7.00 | 6.00 to 7.00 |
| CNc1ccc(-c2nc(N3CCOCC3)c3sc(CNCc4nc5cc(/C=C/C(=O)NO)ccc5n4C)cc3n2)cn1 [Compound 328] | > 7.00 | 6.00 to 7.00 |
| CS(=O)(=O)N1CCN(Cc2cc3nc(-c4cccc5c4cnn5CCCCCCC(=O)NO)nc(N4CCOCC4)c3s2)CC1 [Compound 5, N-hydroxy-7-(4-(6-((4-(methylsulfonyl)piperazin-1-yl)methyl)-4-morpholinothieno[3,2-d]pyrimidin-2-yl)-1H-indazol-1-yl)heptanamide] | < 5.00 | > 7.00 |
| COc1ccc(-c2nc(N3CCOCC3)c3sc(C(C)(C)Nc4ncc(C(=O)NO)cn4)cc3n2)cn1 [Compound 250, N-Hydroxy-2-(2-(2-(6-methoxypyridin-3-yl)-4-morpholino-thieno[3,2-d]pyrimidin-6-yl)propan-2-ylamino)pyrimidine-5-carboxamide] | > 7.00 | > 7.00 |
| O=C(NO)c1cc2nc(-c3cccc4[nH]ncc34)nc(N3CCOCC3)c2s1 [Compound 45] | > 7.00 | < 5.00 |
| COc1ncc(-c2nc(N3CCOCC3)c3sc(NS(=O)(=O)c4cccc(/C=C/C(=O)NO)c4)cc3n2)cn1 [Compound 220] | > 7.00 | > 7.00 |
| CC(=O)c1cccc(-c2nc(N3CCOCC3)c3sc(CN(C)c4ncc(C(=O)NO)cn4)cc3n2)c1 [Compound 300] | 6.00 to 7.00 | > 7.00 |
| O=C(/C=C/c1ccc(CNCc2cc3nc(-c4cccc5[nH]ncc45)nc(N4CCOCC4)c3s2)cc1)NO [Compound 204] | 6.00 to 7.00 | 6.00 to 7.00 |
| O=C(CCCCNc1cc2nc(-c3cc(O)ccc3F)nc(N3CCOCC3)c2s1)NO [Compound 231] | > 7.00 | > 7.00 |
| O=C(/C=C/c1cc2nc(-c3cccc4[nH]ncc34)nc(N3CCOCC3)c2s1)NO [Compound 46] | 6.00 to 7.00 | 5.00 to 6.00 |
| CC1CN(c2nc(-c3cccc4[nH]ncc34)nc3cc(CN(C)c4ncc(C(=O)NO)cn4)sc23)CC(C)O1 (centres unmarked) [Compound 65] | 6.00 to 7.00 | > 7.00 |
| Nc1ccc(-c2nc(N3CCOCC3)c3sc(CN(CCO)c4ncc(C(=O)NO)cn4)cc3n2)cn1 [Compound 235] | > 7.00 | > 7.00 |
| O=C(NO)c1ccc2c(ccn2Cc2cc3nc(-c4cccc5[nH]ncc45)nc(N4CCOCC4)c3s2)c1 [Compound 105] | < 5.00 | 6.00 to 7.00 |
| CN(Cc1cc2nc(-c3cnc(C(N)=O)nc3)nc(N3CCOCC3)c2s1)c1ncc(C(=O)NO)cn1 [Compound 122] | > 7.00 | > 7.00 |
| O=C(CCCCCCNc1cc2nc(-c3cccc4[nH]ncc34)nc(N3CCOCC3)c2s1)NO [Compound 20] | 6.00 to 7.00 | > 7.00 |
| Cc1ncc(-c2nc(N3CCOCC3)c3sc(CN(CCO)c4ncc(C(=O)NO)cn4)cc3n2)s1 [Compound 312] | 6.00 to 7.00 | > 7.00 |

The next lines start with the values.

| pIC50 (PI3Kα (p110α/p85α)) | pIC50 [1] | Compound |
| --- | --- | --- |
| 6.00 to 7.00 | > 7.00 | COc1ncc(-c2nc(N3CCOCC3)c3sc(C(C)(C)N(C)c4ncc(C(=O)NO)cn4)cc3n2)cn1 [Compound 264] |
| 6.00 to 7.00 | > 7.00 | O=C(CCCCNc1cc2nc(-c3cccc4[nH]ncc34)nc(N3CCOCC3)c2s1)NO [Compound 18] |
| < 5.00 | > 7.00 | CN(Cc1cc2nc(-c3cccc(C(C)(C)O)c3)nc(N3CCOCC3)c2s1)c1ncc(C(=O)NO)cn1 [Compound 302] |
| 6.00 to 7.00 | > 7.00 | C/C(=N/O)c1ccc(F)c(-c2nc(N3CCOCC3)c3sc(CN(C)c4ncc(C(=O)NO)cn4)cc3n2)c1 [Compound 298] |
| > 7.00 | 6.00 to 7.00 | CNc1ccc(-c2nc(N3CCOCC3)c3sc(N(C)c4ncc(C(=O)NO)cn4)cc3n2)cn1 [Compound 243] |
| 6.00 to 7.00 | > 7.00 | CN(Cc1cc2nc(-c3cccc(S(N)(=O)=O)c3)nc(N3CCOCC3)c2s1)c1ncc(C(=O)NO)cn1 [Compound 305] |
| 6.00 to 7.00 | 6.00 to 7.00 | CCCc1nc2cc(/C=C/C(=O)NO)ccc2n1CCN(C)Cc1cc2nc(-c3ccc(N)cc3)nc(N3CCOCC3)c2s1 [Compound 324] |
| > 7.00 | 6.00 to 7.00 | Nc1ccc(-c2nc(N3CCOCC3)c3sc(Nc4ncc(C(=O)NO)cn4)cc3n2)cc1 [Compound 273] |
| < 5.00 | > 7.00 | CN(Cc1cc2nc(-c3cccc(NS(C)(=O)=O)c3)nc(N3CCOCC3)c2s1)c1ncc(C(=O)NO)cn1 [Compound 288] |
| 6.00 to 7.00 | > 7.00 | CN(Cc1cc2nc(-c3cnc(OCc4ccccc4)nc3)nc(N3CCOCC3)c2s1)c1ncc(C(=O)NO)cn1 [Compound 266] |
| < 5.00 | > 7.00 | CN(Cc1cc2nc(-c3ccc(OCc4ccccc4)nc3)nc(N3CCOCC3)c2s1)c1ncc(C(=O)NO)cn1 [Compound 260] |
| < 5.00 | > 7.00 | CC(=O)N1CCN(c2nc(-c3cccc4[nH]ncc34)nc3cc(CN(C)c4ncc(C(=O)NO)cn4)sc23)CC1 [Compound 62] |
| 5.00 to 6.00 | > 7.00 | CC(C)(Nc1ncc(C(=O)NO)cn1)c1cc2nc(-c3ccc(N)cc3)nc(N3CCOCC3)c2s1 [Compound 269, 2-(2-(2-(4-Aminophenyl)-4-morpholinothieno[3,2-d]pyrimidin-6-yl)propan-2-ylamino)-N-hydroxypyrimidine-5-carboxamide] |
| > 7.00 | 6.00 to 7.00 | COc1ccc(-c2nc(N3CCOCC3)c3sc(Nc4ncc(C(=O)NO)cn4)cc3n2)cn1 [Compound 253] |
| 6.00 to 7.00 | > 7.00 | CCN(Cc1cc2nc(-c3ccc(N)cc3)nc(N3CCOCC3)c2s1)c1ncc(C(=O)NO)cn1 [Compound 215] |
| < 5.00 | > 7.00 | COc1ccc(Nc2nc(-c3cccc4[nH]ncc34)nc3cc(CN(C)c4ncc(C(=O)NO)cn4)sc23)cc1 [Compound 165] |
| > 7.00 | > 7.00 | O=C(NO)c1cnc(N2CCC(CNc3cc4nc(-c5cccc6[nH]ncc56)nc(N5CCOCC5)c4s3)CC2)nc1 [Compound 48] |
| > 7.00 | 6.00 to 7.00 | CN(CC1CCN(c2ncc(C(=O)NO)cn2)CC1)c1cc2nc(-c3cccc4[nH]ncc34)nc(N3CCOCC3)c2s1 [Compound 49] |
